Assay results taken from the supplement of paper PMC10307832.

How the values were obtained:
Experiment in all cases: relative viability (nuclei count vs DMSO), 5 days (fraction); higher = more cells survive
[1] = compound: C(C(=O)C(=O)O)Br [Bromopyruvate] + C[C@@H](Oc1cc(-c2cnn(C3CCNCC3)c2)cnc1N)c1c(Cl)ccc(F)c1Cl [Crizotinib] (partner 1 µM)
In short: (§1)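 Nuclei were stained with Hoechst during a one-step fixation (final 0.05% Triton X-100, 1% formaldehyde, 1 ug/ml Hoechst) carried out 5 days after dosing, then counted on 4× images. The cells, lung cancer lines in 1536-well plates, had been dosed by pin tool the day after seeding with one drug alone or a fixed anchor-drug dose plus five library-drug doses (not always all listed) in √10 steps. Relative viability is the nuclei count in treated wells divided by that in vehicle wells, and each value is the median of duplicate plates.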

[2] = compound: C(C(=O)C(=O)O)Br [Bromopyruvate] + C[C@]1(O)C[C@@H](c2nc(-c3ccc4ccc(-c5ccccc5)nc4c3)c3c(N)nccn32)C1 [Linsitinib] (partner 1 µM)
In short: as §1

[3] = compound: CC(O)(CS(=O)(=O)c1ccc(F)cc1)C(=O)Nc1ccc(C#N)c(C(F)(F)F)c1 [Bicalutamide] + Nc1ncn([C@H]2C[C@H](O)[C@@H](CO)O2)c(=O)n1 [Decitabine] (partner 2 µM)
In short: as §1

[4] = compound: CC(O)(CS(=O)(=O)c1ccc(F)cc1)C(=O)Nc1ccc(C#N)c(C(F)(F)F)c1 [Bicalutamide] + CC(=O)c1c(C)c2cnc(Nc3ccc(N4CCNCC4)cn3)nc2n(C2CCCC2)c1=O [Palbociclib] (partner 0.5 µM)
In short: as §1

Cell Line	relative viability ([1]; first compound 1 µM)	relative viability ([1]; first compound 3.162 µM)	relative viability ([1]; first compound 10 µM)	relative viability ([1]; first compound 31.62 µM)	relative viability ([1]; first compound 100 µM)	relative viability ([2]; first compound 1 µM)	relative viability ([2]; first compound 3.162 µM)	relative viability ([2]; first compound 10 µM)	relative viability ([2]; first compound 31.62 µM)	relative viability ([2]; first compound 100 µM)	relative viability ([3]; first compound 0.08 µM)	relative viability ([3]; first compound 0.253 µM)	relative viability ([3]; first compound 0.8 µM)	relative viability ([3]; first compound 2.53 µM)	relative viability ([4]; first compound 0.08 µM)	relative viability ([4]; first compound 0.253 µM)	relative viability ([4]; first compound 0.8 µM)	relative viability ([4]; first compound 2.53 µM)
NCI-H322M	0.958	0.804	0.948	0.806	0.943	0.869	0.913	0.981	0.908	0.891	0.656	0.494	0.649	0.735	0.515	0.482	0.464	0.524
NCI-H358	0.681	0.702	0.521	0.604	0.64	0.748	0.77	0.81	0.62	0.903	0.224	0.224	0.193	0.204	0.147	0.141	0.14	0.125
NCI-H441	0.884	0.739	0.661	0.82	0.337	0.533	0.656	0.543	0.507	0.518	0.264	0.23	0.22	0.257	0.33	0.142	0.24	0.202
NCI-H460	0.771	0.921	1.09	0.919	0.714	0.801	0.832	1.09	0.717	0.744	0.55	0.468	0.598	0.484	0.171	0.185	0.193	0.102
NCI-H520	0.716	0.707	0.737	0.685	0.673	1.06	1.09	1.11	0.961	0.893	0.576	0.52	0.646	0.51	0.188	0.185	0.286	0.226
NCI-H647	1.05	1.18	1.25	1.16	1.1	1.03	1.48	1.55	1.15	0.806	0.601	0.328	0.34	0.338	0.415	0.381	0.503	0.385
NCI-H650	0.7	0.721	0.678	0.634	0.711	0.756	0.976	0.871	0.921	1.03	0.318	0.308	0.333	0.335	0.372	0.345	0.397	0.267
NCI-H661	1.05	0.897	0.854	1.12	1.11	0.556	0.631	0.591	0.727	0.676	0.546	0.51	0.557	0.549	0.418	0.409	0.424	0.388
NCI-H727	0.996	0.89	0.844	0.739	0.83	0.307	0.495	0.296	0.291	0.283	0.994	0.847	0.896	0.991	0.647	0.645	0.693	0.635
NCI-H838	0.959	0.881	0.825	0.871	0.854	0.966	1.05	1.23	1.02	1.1	0.484	0.461	0.508	0.371	0.225	0.195	0.256	0.179
NCI-H1355	1.05	1.06	1.18	1.06	0.983	0.778	0.772	0.914	0.873	0.866	0.367	0.348	0.395	0.376	0.4	0.382	0.437	0.374
NCI-H1437	0.923	0.981	0.914	0.938	0.92	1.02	1.03	1.22	1.02	1.17	0.554	0.501	0.599	0.616	0.305	0.283	0.342	0.343
NCI-H1651	0.876	0.83	0.919	0.847	0.796	0.876	0.98	0.902	0.885	1.07	0.6	0.618	0.779	0.655	0.526	0.515	0.582	0.518
NCI-H1666	0.993	0.907	0.963	1.18	0.857	0.736	0.764	0.783	0.744	0.86	0.724	0.706	0.767	0.723	0.652	0.603	0.652	0.675
NCI-H1734	0.67	0.68	0.803	0.67	0.659	0.837	0.949	0.989	0.852	0.905	0.542	0.453	0.515	0.558	0.332	0.283	0.379	0.328
NCI-H1755	0.973	0.797	0.884	0.881	1	1.01	1.03	0.984	0.984	0.985	0.737	0.636	0.721	0.741	0.472	0.42	0.473	0.43
NCI-H1792	1.11	1.03	1.09	0.878	0.984	0.538	0.533	0.718	0.522	0.456	0.543	0.466	0.618	0.548	0.653	0.569	0.759	0.614
